The values below come from patent US20040138169A1, “Composition and use of substances for stabilising amino acids containing sulphur” (priority 2001, published 2004).

Data set [1] concerns HCY-concentration in whole blood. Put plainly: Stabilization of the homocysteine (HCY) concentration in withdrawn whole blood stored in monovettes with stabilizer. The following applies: room temperature; for HCY-SD (duration of stabilization): whole blood in EDTA- or Na-heparin-monovettes with stabilizer (amount per ml blood); for stabilization of homocysteine (duration): whole blood. It counts as cell-based. On the procedure: (§1) Material Used and Processes
(§2) The following inhibitors of methyl transferase or S-adenosylhomocysteine hydrolase have been tested
(§3) The effectiveness of the inhibitors have been tested in combination with the following acids:
(§4) The compositions of further reagents have been:
(§5) Mixture A: 5(4)-AMCA (5.2 mg) and DEOA (3.2 mg), dissolved in 500 μl phosphate buffer.
(§6) Composition of the buffer for mixture A:
(§7) All other substances have been dissolved in water.
(§8) Blood Withdrawal and Treatment of Samples
(§9) Corresponding amounts of stabilizers have been provided in EDTA- or Na-heparin-monovettes for each Example or Comparative Example (see Table 1). The blood withdrawal has been carried out in monovettes with and without stabilizers. For the control value, the monovettes have been centrifuged within 30 minutes after withdrawal.

Data set [2] concerns concentration of cysteine (CYS) in whole blood. Put plainly: Stabilization of the cysteine (CYS) concentration in withdrawn whole blood stored in monovettes with stabilizer. It counts as cell-based. Particulars: whole blood in EDTA- or Na-heparin-monovettes with stabilizer (amount per ml blood), room temperature. On the procedure: as §1, §2, §3, §4, §5, §6, §7, §8, §9

The test system of data set [3] is concentration of cysteinyl glycine (CYSGLY) in whole blood. Kind of data set: Stabilization of the cysteinyl glycine (CYSGLY) concentration in withdrawn whole blood stored in monovettes with stabilizer. The data set is classed as cell-based. The protocol:
as §1, §2, §3, §4, §5, §6, §7, §8, §9

Data set [4] has as its system sulphur-containing amino acids (HCY, CYS, CYSGLY, GLU) in whole blood. Put plainly: Stabilization of sulphur-containing amino acids (HCY, CYS, CYSGLY, GLU) together in whole blood samples. Particulars: substance used alone, samples at room temperature. It counts as cell-based. The protocol:
as §1, §2, §3, §4, §5, §6, §7, §8, §9

The test system of data set [5] is homocysteine level in blood. The following applies: cited from earlier work.
Data set [6] concerns concentration of glutathione (GLU) in whole blood. Kind of data set: Stabilization of the glutathione (GLU) concentration in withdrawn whole blood stored in monovettes with stabilizer. The data set is classed as cell-based. On the procedure: as §1, §2, §3, §4, §5, §6, §7, §8, §9
Data set [7] is described as follows: Storage stability of the reagent. It counts as physicochemical. The following applies: can be stored only in cooled state (+4° C.). On the procedure:
A problem which occurs when using 3-deazaadenosine resides in that noticable variations of the measured values occur, lying in the range of up to 2 μmol/l in 60 hours with homocysteine and in the range of up to 60 μmol/l in 60 hours with cysteine. […] A further problem resides in that 3-deazaadenosine is not stable at room temperature and can be stored only in cooled state (+4° C.), which limits also its shipment capabilities. However, a simple handling of the reagents is of great importance in the diagnostic medicine, because for example withdrawn blood must be present in an unmodified form and transportable over an extended period without larger expenditure like, for example, cooling.

Entries after “also recorded” stand apart in the source; their conditions may differ.

As for `O=C1O[C@H]([C@@H](O)CO)C(O)=C1O` [Cmp.-Ex. 2, ascorbic acid], the “HCY-SD (duration of stabilization)” value in data set [1] is on record as 73 h. For the same compound, the “CYS-SD (duration of stabilization)” value in data set [2] was 73 h. The “CYSGLY-SD (duration of stabilization)” value in data set [3] (whole blood in EDTA- or Na-heparin-monovettes with stabilizer (amount per ml blood), room temperature) is recorded as 73 h.
As to `O=C(O)CC(O)(CC(=O)O)C(=O)O` [citric acid], the “stabilization of the sulphur-containing amino acids (in words)” value (“stabilization … (in words)” below) in data set [4] is “no stabilization”.
Regarding `[F-].[Na+]` [NaF], in data set [5] (in comparison with the initial value at the time of withdrawing the blood), the “change of the homocysteine level in blood samples (in words)” value was “no increase; also recorded: decrease”.
With `NC(=O)c1nc[nH]c1N` [5(4)-aminoimidazol-4(5)-carboxamid, 5(4)-aminoimidazol-4(5)-carboxamide], the “stabilization … (in words)” value in data set [4] is “no significant stabilization”.
With `O=C(O)CN(CCN(CC(=O)O)CC(=O)O)CC(=O)O` [Na-EDTA, ethylenediamine tetraacetic acid], the “stabilization … (in words)” value in data set [4] was “no stabilization”.
`Nc1ncnc2c1ncn2[C@@H]1C=C(CO)[C@@H](O)[C@H]1O` [Ex. 13, neplanocin A]: in data set [1], the “HCY-SD (duration of stabilization)” value came out at 70 h.
`O=C(O)/C=C/C(=O)O` [Cmp.-Ex. 3, fumaric acid]: in data set [1], the “HCY-SD (duration of stabilization)” value is on record as 47 h. Also, the “CYS-SD (duration of stabilization)” value in data set [2] came out at 47 h.
Regarding `Nc1ncnc2c1ncn2[C@H]1C[C@H](O)[C@@H](CO)O1` [2′-deoxyadenosin], the “stabilization … (in words)” value in data set [4] was “no significant stabilization”.
Take `Nc1nccc2c1ncn2[C@@H]1O[C@H](CO)[C@@H](O)[C@H]1O` [Cmp.-Ex. 1, 3-deazaadenosin]: the “HCY-SD (duration of stabilization)” value in data set [1] was 56 h. In data set [2], the “CYS-SD (duration of stabilization)” value came out at 56 h. Also, the “inhibition of the formation of cysteinyl glycine (in words)” value in data set [3] is recorded as “does not inhibit”. In addition, the “inhibition of the formation of glutathione (in words)” value in data set [6] is given as “does not inhibit”. Besides, the “stability of the reagent at room temperature (in words)” value in data set [7] is on record as “not stable”. In addition, the “increase of the homocysteine level” value in data set [5] (72 hours after the blood withdrawal) is “about 10%”. In addition, in data set [5] (blood samples), the “time over which the reaction from S-adenosylhomocysteine to homocysteine is effectively inhibited” value was “up to 72 hours” and the “time without increase of the homocysteine level in blood” value was “up to 24 hours”.
Regarding `Nc1nccc2c1ncn2[C@@H]1C=C(CO)[C@@H](O)[C@H]1O` [Ex. 14, 3-deazaneplanocin A], in data set [1], the “HCY-SD (duration of stabilization)” value was 143 h and the “stabilization of homocysteine (duration)” value is recorded as “at least 143 hours”. For the same compound, in data set [1] (listed as 3DA-NeplA), the “stabilization of homocysteine (duration)” value was 143 h.
